Results: a melting point compilation (Tetko et al.; mined from patent text by program, amines drawn as free bases though some values may be those of a salt)

Row | Compound | melting point [°C]
1 | CCOC(=O)N=P(c1ccccc1)(c1ccccc1)c1ccccc1CN1CCCCC1 | 121 to 123
2 | c1ccc(COC2CCN(Cc3cc4ccccc4[nH]3)CC2)cc1 | 103 to 105
3 | CCCc1ccc2nc(Cl)c(S(=O)(=O)Cl)n2n1 | 94.2 to 95.5
4 | CC1(C)NC2C(=O)N(C(O)C(=O)OCC(Cl)(Cl)Cl)C2S1 (stereo not drawn) | 125 to 127
5 | CN1CCN(C(=O)c2ccc(-c3[nH]nc4c3C(=O)c3c(NC(=O)NN5CCOCC5)cccc3-4)s2)CC1 | 186 to 187
6 | CCCc1nn(C)c2c(=O)[nH]c(-c3cc(C(=O)O)ccc3OCC)nc12 | 285 to 288
7 | Nc1nc(N)c2ncn(COCCOC=O)c2n1 | 238 to 240
8 | CCCCCCCCCc1ccc(C(=O)CC(=O)C(=O)O)cc1 | 90 to 91
9 | Clc1ccc(N2CCCCC2)cc1 | 69
10 | O=c1[nH]c2ncc(-c3ccc(-c4n[nH]c(CO)n4)cc3)nc2n1CC1CCOCC1 | 258 to 260
11 | CCCCCCCCCCCCn1nnnc1Nc1ccccc1 | 108 to 111
12 | O=c1[nH]c(=O)n(C2CC(O)C(CF)O2)cc1C=CBr (stereo not drawn) | 208
13 | CCOC(=O)C(C)O/N=C(\C(=O)O)c1csc(N)n1 (stereo not drawn) | 166
14 | CCCCCC(Oc1ccc(C2=CCCCCC2)cc1)C(=O)O (stereo not drawn) | 69 to 71
15 | COc1cc(C(=O)NS(=O)(=O)c2ccccc2Cl)ccc1Cc1c(Cl)n(C)c2ccc(CCNC(=O)N(C)C)cc12 | 204 to 206
16 | C=CC[C@@H]1[C@H](O)[C@@H](O)C(=O)N1Cc1ccccc1 (relative stereo) | 90 to 93
17 | O=S(=O)(CC(O)(CBr)c1cccc(F)c1)c1ccccc1Cl (stereo not drawn) | 121
18 | CCc1noc(=O)c2ccc(NC(=O)C(=O)CC(C)(C)c3cc(F)ccc3OC)cc12 | 157 to 158
19 | Cc1c2c(c(Cc3ccc(C(C)C)cc3)c(C)c1NC(=O)NCCO)OCC2 | 176 to 177
20 | CCOC(=O)CCC(=O)c1ccc2c(c1)CCC2 | 51 to 52
21 | Cc1c(-c2ccccc2)c(N2CC[C@H](N(C)C)C2)c2oc(-c3ccccc3O)nc2c1C#N | 159 to 162
22 | CC(C)(C)c1ccc2oc(-c3ccc(C=Cc4ccc(-n5ncc(-c6ccccc6)n5)cc4)cc3)nc2c1 | 230 to 231
23 | COc1ccc2c(c1)sc1nc(Nc3ccccc3)nc(=N)n12 | 225 to 226
24 | C=C1c2ccccc2C(=O)N1c1ccncc1 | 173 to 174
25 | Cc1cc(C)c([N+](=O)[O-])cc1N1CCCCC1=O | 134 to 135

Row | Compound | melting point [°C]
26 | Nc1c(Cl)cc(-c2nn(C3CCN(CCCC(F)(F)F)CC3)c(=O)o2)c2c1OCCO2 | 188
27 | CN(C=O)C1CCC(O)(c2ccc(Cl)c(Cl)c2)c2ccccc21 (stereo not drawn) | 123 to 125
28 | CC12CC(N3CCC4(CC3)OCCO4)C(O)CC1CCC1C2CCC2(C)C(O)C(N3CCC4(CC3)OCCO4)CC12 (stereo not drawn) | 180 to 182
29 | CC(=O)OCCn1c2c(c3ccccc3c1=O)C(=O)c1ccccc1-2 | 221 to 224
30 | CC(=O)Nc1cccc(Sc2c(Cc3cccc4ccccc34)sc3c2c(=O)n(C)c(=O)n3CC(C)C)c1 | 173 to 174
31 | CCOC(=O)Cc1nc(-c2ccc(Cl)cc2)oc1CC(C)C | 56 to 57
32 | O=C(O)CCc1ccc(OCCc2ccccc2)cc1 | 91 to 92
33 | CC(=O)OCC(=O)C1C(C)CC2C3CC(Cl)C4=CC(=O)C=CC4(C)C34OC4CC21C (stereo not drawn) | 189
34 | CCCCCCCCCCCCCCCCCCN1C(=O)c2ccccc2C1=O | 78 to 79
35 | CN1C(=O)CC[C@]2(C)c3ccc(Sc4nc5cc(Cl)ccc5s4)cc3CC[C@@H]12 | 179 to 180
36 | COC(=O)C1=C(C)NC(C)=C(S(C)(=O)=O)C1c1ccccc1[N+](=O)[O-] (stereo not drawn) | 211 to 212
37 | O=[N+]([O-])c1ccc(CN2CCC(C(c3ccccc3)c3ccccc3)CC2)cc1 | 130 to 131
38 | CN1C(=O)NC(Cc2c[nH]c3ccccc23)C1CCc1cc(C(F)(F)F)cc(C(F)(F)F)c1 (stereo not drawn) | 191
39 | Cc1cc(CCCCCOc2c(Cl)cc(C3=NCCC3)cc2Cl)on1 | 57 to 59
40 | O=C(C[C@@H](C(=O)OCc1ccccc1)n1c2ccccc2c2ccccc21)OCCOC(=O)c1ccc(NC(=O)OCc2ccccc2)cc1 | 58
41 | CN(C)CCCn1c2c(c3ccccc31)CC(O)CC2 (stereo not drawn) | 174 to 176
42 | C=CCc1ccc2oc(CC)c(C)c2c1O | 38 to 40
43 | c1ccc2c(=Nc3ccncc3)cc3oc4cc(N5CCOCC5)ccc4nc-3c2c1 | > 300
44 | COc1ccc(-c2[nH]nc3c2C(=O)c2c(NC(=O)Cc4ccc(OC)c(OC)c4)cccc2-3)cc1 | > 300
45 | O=C(O)CN(CC(=O)O)C(=O)OCC1c2ccccc2-c2ccccc21 | 213 to 216
46 | CNC(=O)c1ccc(-c2cccc(C3=NC(C)(C)Cc4cc(OC)c5c(c43)CC(C)(C)O5)c2)cc1 | 242 to 244
47 | CN(C)c1ccc([N+](=O)[O-])c(C(O)c2ccccc2)c1 (stereo not drawn) | 95 to 97
48 | CC(O)c1cc2c(s1)C(=O)c1c(C(C)O)csc1C2=O (stereo not drawn) | 218 to 219
49 | CC(Cc1ccc(Oc2cc(N3CCN(Cc4ccccn4)CC3)nc(N)n2)cc1)(Oc1ccccc1)C(=O)O (stereo not drawn) | 138 to 139
50 | CC(C)(N)CSCCO | 49 to 51

Row | Compound | melting point [°C]
51 | Cc1cc2cn[nH]c2c(C(=O)NC2(C3CC3)CC2)c1NC(=O)c1cc(Br)nn1-c1ncccc1Cl | 170 to 173
52 | CCOC(=O)C(=O)c1ccc(OCCCCC(=O)c2cc(C(C)(C)C)c(O)c(C(C)(C)C)c2)cc1 | 95 to 96
53 | O=C(O)CCC1COc2ccccc2O1 (stereo not drawn) | 102
54 | O=C1NC(CCN2CCC(C(=O)c3ccc(F)cc3)CC2)Nc2ccccc21 (stereo not drawn) | 153
55 | COC(=O)c1ccc(-c2csc(-c3ccc4c(c3)C(C)(C)CCC4(C)C)c2)cc1 | 108 to 110
56 | COc1ccc2cc(S(=O)(=O)Cc3ccc(OC)c([N+](=O)[O-])c3)c(=O)oc2c1 | 250 to 252
57 | CCCN1C(=O)c2ccccc2Sc2ccccc21 | 103 to 104
58 | O=C(Nc1ccc(F)c(F)c1)c1cc(-c2ccc(F)cc2F)ccc1O | 231 to 232
59 | C#CCOc1cc(C(=O)O)cc([N+](=O)[O-])c1-c1ccccc1 | 145 to 147
60 | CCOc1ccc(C(C)=NOCCO)cc1 | 51 to 54
61 | Nc1cccc(S(=O)(=O)NCc2ccccn2)c1 | 124
62 | CC1(c2n[nH]c(=O)o2)CC1 | 68 to 70
63 | CC1=C(c2ccc(C(=O)N3Cc4cccn4Cc4ccccc43)cc2)CCCC1=O | 95 to 97
64 | CN1CCC(n2ccc(-c3ccc(F)cc3)c2-c2ccncc2)CC1 | 187 to 189
65 | CN(Cc1ccccc1)[C@@H](CC(N)=O)C(=O)N[C@@H](Cc1ccccc1)[C@H](O)C(=O)N1CCC[C@H]1C(=O)NC(C)(C)C | 97 to 100
66 | COC(=O)c1nc(N(C)C(C)=O)ccc1Oc1nc(OC)cc(OC)n1 | 119 to 121
67 | Nc1c(-c2cccs2)nsc1C(=O)O | 221 to 224
68 | CC(OC(=O)c1ccccc1)P(=O)(O)OC(CCCCN)C(=O)N1CCCC1C(=O)O (stereo not drawn) | 186 to 192
69 | Cc1cc2c(N3CCc4ccc(Cl)cc43)ncnc2cn1 | 232 to 234
70 | CCOC(=O)C1CCN(S(C)(=O)=O)CC1 | 91 to 92
71 | COc1cc(C(C)C#Cc2cnc(N)nc2N)cc(OC)c1OC (stereo not drawn) | 220 to 222
72 | CCOC(=O)C=CC(=O)Nc1ccc2c(Nc3cccc(Br)c3)ncnc2c1 | > 260
73 | CCOC(=O)c1cc(-c2ccccc2)n(-c2cccc(C)c2)c1C | 103 to 104
74 | N#CN1CCN(c2nn(-c3ccccc3)c3cc(F)ccc23)CC1 | 172 to 174
75 | CC(CC(=O)N1CCCC1)Sc1cc(C(C)(C)C)c(O)c(C(C)(C)C)c1 (stereo not drawn) | 95 to 99

Row | Compound | melting point [°C]
76 | COCC1(O)CCN(c2ccc(N3C[C@H](CNC(C)=O)OC3=O)cc2)CC1 | 152 to 154
77 | CC(C)C(C)(C)C(O)C(Cc1ccc(Cl)cc1)n1cncn1 (stereo not drawn) | 106
78 | Cc1ccc(C(=O)c2ccn(C)c2C)cc1 | 80 to 82
79 | Brc1ccc2c(c1)C(c1ccc(Oc3ccccc3)cc1)(c1ccc(Oc3ccccc3)cc1)c1cc(Br)ccc1-2 | 178 to 180
80 | CC(CCN1C(=O)c2ccccc2C1=O)=NO | 151 to 172
81 | CC(=O)NC12CCC(CC1)C2(C)C | 133 to 134
82 | Nc1ccc(OC2=C(Oc3ccc(N)cc3)C(F)(F)C(F)(F)C2(F)F)cc1 | 78 to 83
83 | COC(=O)C1=C(C)NC(C)=C(C(=O)OCCCBr)C1c1cccc([N+](=O)[O-])c1 (stereo not drawn) | 112 to 114
84 | COC(=O)c1ccc(Cn2c(C(F)(F)F)nc3cc(C)c(C)cc32)cc1 | 150 to 152
85 | CC(C)(Cc1c(C(C)(C)C)c2cc(OCc3ccc4ccccc4n3)ccc2n1Cc1ccc(Cl)cc1)C(=O)O | 201 to 202
86 | C=C(C)c1cnc(C2=NC(C)(C(C)C)C(=O)N2)c(C(=O)OC)c1 (stereo not drawn) | 90.5 to 92.5
87 | COC(=O)c1c(C(=O)OC)c2n(c1C)-c1ccccc1C2 | 162 to 164
88 | COc1nc(C)cnc1NS(=O)(=O)c1cccnc1-c1ccc(CC(C)(C)C)cc1 | 159 to 160
89 | CCCCCCCCCCCCCCCCCCOc1cc(OC(=O)C(c2ccccc2)c2ccccc2)cc(C(=O)O)c1 | 82 to 86
90 | N#CC(c1ccc([N+](=O)[O-])cc1)c1ccc(Cl)cc1Cl (stereo not drawn) | 81 to 82.5
91 | NS(=O)(=O)c1nc2ccc(OC(=O)Cc3ccccc3)cc2s1 | 177 to 179
92 | COc1cc(OC)nc(Oc2cccc3c2C(=O)OC3O)n1 (stereo not drawn) | 143 to 145
93 | CCCCC[C@@H](CNC(=O)Nc1c(N2CCOCC2)ncnc1N1CCOCC1)c1cccc2c1OCO2 | 128 to 132
94 | Cc1ccc(C)n1-c1ccc(Br)cn1 | 69
95 | CC12CCC3c4ccc(OCc5ccccc5)cc4CCC3C1CCC2O (stereo not drawn) | 97 to 100
96 | COc1ccc2c(c1)c(CC(=O)Oc1cccc(CO[N+](=O)[O-])c1)c(C)n2C(=O)c1ccc(Cl)cc1 | 115 to 117
97 | CC(O)(c1ccccc1)c1cc(Oc2ccc(Cl)cc2)ccc1O (stereo not drawn) | 103 to 104
98 | CN1C(=O)CCC1(O)c1ccc(Cl)c(S(N)(=O)=O)c1 (stereo not drawn) | 147 to 149
